Measured values as given in ChEMBL document CHEMBL1201862, “PubChem BioAssay data set” (2004).
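Dose response: 5 concentrations. Exposure: 48 h. Format: 96-well plates. Endpoint: linear interpolation; highest concentration if not reached. The concentration for 50% growth inhibition is given as GI50.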 The source made the active and inactive calls. No stated cut-off is given here; in the data, active = GI50 up to about 1.1 µM and inactive = higher.

Experiments:
Experiment in all cases: NCI tumour cell line growth inhibition, 48 h
SK-OV-3 = test system: SK-OV-3
SK-MEL-2 = test system: SK-MEL-2
TK-10 = test system: TK-10
SW-620 = test system: SW-620
KM12 = test system: KM12
SNB-19 = test system: SNB-19
UACC-62 = test system: UACC-62
OVCAR-8 = test system: OVCAR-8
CAKI-1 = test system: CAKI-1
OVCAR-5 = test system: OVCAR-5
UACC-257 = test system: UACC-257
OVCAR-4 = test system: OVCAR-4
SR = test system: SR
IGROV-1 = test system: IGROV-1
SN12C = test system: SN12C
HCT-15 = test system: HCT-15
SF-295 = test system: SF-295
HT-29 = test system: HT-29
RPMI-8226 = test system: RPMI-8226
NCI-H226 = test system: NCI-H226

Structure (SMILES) | GI50 (SK-OV-3) | GI50 (SK-MEL-2) | GI50 (TK-10) | GI50 (SW-620) | GI50 (KM12) | GI50 (SNB-19) | GI50 (UACC-62) | GI50 (OVCAR-8) | GI50 (CAKI-1) | GI50 (OVCAR-5) | GI50 (UACC-257) | GI50 (OVCAR-4) | GI50 (SR) | GI50 (IGROV-1) | GI50 (SN12C) | GI50 (HCT-15) [µM] | GI50 (SF-295) | GI50 (HT-29) | GI50 (RPMI-8226) | GI50 (NCI-H226)
CC(C)(C)/N=C/N1C=Cc2nc3ccccc3cc2C1 | > 100 µM (inactive) | > 100 µM (inactive) | > 100 µM (inactive) | 19.5 µM (inactive) | > 100 µM (inactive) | > 100 µM (inactive) | > 100 µM (inactive) | > 100 µM (inactive) | > 100 µM (inactive) | > 100 µM (inactive) | > 100 µM (inactive) | > 100 µM (inactive) | > 100 µM (inactive) | > 100 µM (inactive) | > 100 µM (inactive) | 57.1 | > 100 µM (inactive) | > 100 µM (inactive) | – | –
CC1=CC2CC(C)C1(C)CCc1ccoc12 (stereo unspecified) | > 100 µM (inactive) | > 100 µM (inactive) | > 100 µM (inactive) | > 100 µM (inactive) | > 100 µM (inactive) | > 100 µM (inactive) | > 100 µM (inactive) | > 100 µM (inactive) | > 100 µM (inactive) | > 100 µM (inactive) | > 100 µM (inactive) | > 100 µM (inactive) | > 100 µM (inactive) | > 100 µM (inactive) | > 100 µM (inactive) | > 100 | > 100 µM (inactive) | > 100 µM (inactive) | > 100 µM (inactive) | –
Cc1ccc(C2C(Cl)C(=O)N2NC(=O)c2ccc(N)cc2)cc1 (stereo unspecified) | 20.1 µM (inactive) | 1.33 µM (inactive) | 43.6 µM (inactive) | 21 µM (inactive) | 25.5 µM (inactive) | 18.4 µM (inactive) | 15.8 µM (inactive) | 14.4 µM (inactive) | 20.1 µM (inactive) | 24.3 µM (inactive) | 24.3 µM (inactive) | 29 µM (inactive) | – | 8.97 µM (inactive) | 22.7 µM (inactive) | 15.7 | 20.3 µM (inactive) | 21.2 µM (inactive) | 24.2 µM (inactive) | 27.4 µM (inactive)
COc1ccc2[nH]c3c(c2c1)[C@H]1CCC(C(C)(C)C)C[C@H]1[C@H]1C(=O)N(c2ccccc2)C(=O)[C@@H]31 (stereo partly specified) | 15.6 µM (inactive) | 20 µM (inactive) | 22.6 µM (inactive) | 20.2 µM (inactive) | > 43.4 µM (inactive) | 16.3 µM (inactive) | 31 µM (inactive) | 6.84 µM (inactive) | 12 µM (inactive) | > 60.1 µM (inactive) | 24.2 µM (inactive) | 3.3 µM (inactive) | – | > 58.7 µM (inactive) | 11.9 µM (inactive) | > 100 | 7.18 µM (inactive) | > 100 µM (inactive) | 33.3 µM (inactive) | 27.6 µM (inactive)
COC(=O)C1=C(C[S+]([O-])c2ccccc2[N+](=O)[O-])ON(C)C1c1ccccc1 (stereo unspecified) | > 100 µM (inactive) | 62.1 µM (inactive) | 35.7 µM (inactive) | 25.4 µM (inactive) | 55.5 µM (inactive) | > 100 µM (inactive) | 28.8 µM (inactive) | 21.3 µM (inactive) | 45.7 µM (inactive) | > 100 µM (inactive) | 35.2 µM (inactive) | 66.7 µM (inactive) | – | > 100 µM (inactive) | 19 µM (inactive) | 22.5 | 65.8 µM (inactive) | 32.1 µM (inactive) | 34 µM (inactive) | 37.8 µM (inactive)
COC1C(=O)CCC2(CO2)C1(O)C1(C)OC1CC=C(C)C (stereo unspecified) | 51.6 µM (inactive) | 27.6 µM (inactive) | 22.9 µM (inactive) | 18.4 µM (inactive) | 16.2 µM (inactive) | 15 µM (inactive) | 13.7 µM (inactive) | 30.9 µM (inactive) | 38.1 µM (inactive) | 51.5 µM (inactive) | 23.2 µM (inactive) | > 100 µM (inactive) | 13.9 µM (inactive) | 16.9 µM (inactive) | > 100 µM (inactive) | 19 | 29.8 µM (inactive) | 23.1 µM (inactive) | – | –
CO/C(=C/C(=O)C(Cl)(Cl)Cl)CC/C(=C\C(=O)C(Cl)(Cl)Cl)OC | 30.4 µM (inactive) | 32.4 µM (inactive) | 30.8 µM (inactive) | 53 µM (inactive) | 27.7 µM (inactive) | 45.8 µM (inactive) | 22 µM (inactive) | 21.9 µM (inactive) | 24.9 µM (inactive) | 27.8 µM (inactive) | 19.2 µM (inactive) | 19.1 µM (inactive) | 18.6 µM (inactive) | 16.3 µM (inactive) | 23.2 µM (inactive) | 22.5 | 36.3 µM (inactive) | 25 µM (inactive) | 22.3 µM (inactive) | –
